From US10875830B2, “Method of treatment” (priority 2016, dated 2020)
Where two headings read alike, the source gives them in different places.

Assays:
[1] = test system: P. aeruginosa PAO1 pqsA::lux; experiment: pqsA::lux promoter fusion biosensor in P. aeruginosa PAO1-L (AQ-dependent quorum sensing); type: cell-based, Pseudomonas aeruginosa; conditions: for IC50: Pseudomonas aeruginosa, PAO1, read-out: IC50, pqsA::lux expression; for inhibition of light output / pqsA expression at high concentrations: FIG. 6 and 7
Protocol: The expression of rhl and las AHL- and the pqsA AQ-synthase genes was evaluated using lux-based lasl (FIG. 1), rhll (FIG. 2) and pqsA (FIG. 3) chromosomally integrated promoter fusions. Luminescence was quantified as a function of bacterial growth. The applicant further determined that none of the lactams is growth inhibitory at 100 μM using a large number of strains (figure not shown).
To determine the relative inhibitory activities (IC50s) of 4-(4-chlorophenyl)-5-methylene-pyrrol-2-one (Ref. 488) and 5-methylene-4-(p-tolyl)pyrrol-2-one (Ref. 491), dose response curves were constructed using the same biosensor strain (P. aeruginosa PAO1 pqsA::lux; Fletcher et al, 2007; Ilangovan et al 2013). This strain produces light in response to the endogenous production of AQs such as PQS and HHQ.

[2] = test system: P. aeruginosa strain PAO1-L; experiment: pyocyanin production by PAO1-L, visual assessment; type: cell-based, Pseudomonas aeruginosa; conditions: 100 μM (vial 2), 8 h at 37° C., qualitative
Source text: Pyocyanin is a blue redox-active secondary metabolite and a putative signalling molecule in P. aeruginosa (Jayaseelan et al, 2014). The pyocyanin biosynthetic (phz) genes are regulated by QS and in part via the transcriptional regulator PqsR acting through PqsE (Rampioni et al 2011).
Although qualitative, this observation offers further confirmation of the inhibitory effects of lactam 4-(4-chlorophenyl)-5-methylene-pyrrol-2-one (Ref. 488) on AQ-dependent QS.

PqsR = target: T1, PqsR (Pseudomonas aeruginosa, UniProt Q9I4X0); experiment: PQS-dependent pqsA::lux expression in AQ-non producing PAO1-L ΔpqsA (PqsR antagonism); type: cell-based
T1 construct: endogenous in cells; host or cells: P. aeruginosa PAO1-L ΔpqsA, chromosomal pqsA::lux fusion
T1 sequence (Q9I4X0 whole entry, the tested form may be a part): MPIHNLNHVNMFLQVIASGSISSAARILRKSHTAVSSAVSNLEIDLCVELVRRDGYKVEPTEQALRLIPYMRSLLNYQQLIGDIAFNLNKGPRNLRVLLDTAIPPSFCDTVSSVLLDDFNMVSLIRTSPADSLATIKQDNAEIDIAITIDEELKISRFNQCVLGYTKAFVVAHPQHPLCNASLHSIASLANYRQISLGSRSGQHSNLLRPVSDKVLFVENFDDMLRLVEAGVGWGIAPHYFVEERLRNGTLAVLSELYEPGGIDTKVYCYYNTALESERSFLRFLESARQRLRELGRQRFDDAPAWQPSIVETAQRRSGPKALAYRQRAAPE
Source text: The inhibitory action of 4-(4-chlorophenyl)-5-methylene-pyrrol-2-one (Ref. 488) may involve inhibition of AQ biosynthesis or 4-(4-chlorophenyl)-5-methylene-pyrrol-2-one (Ref. 488) may behave like an antagonist and block the PQS receptor, PqsR. […] Experiments were therefore designed to determine the nature and degree of 4-(4-chlorophenyl)-5-methylene-pyrrol-2-one (Ref. 488) inhibitory activity.
By using the AQ-non producing P. aeruginosa strain PAO1-L ΔpqsA, pqsA::lux, the EC50 value for the native PqsR agonist, PQS was calculated as ˜2 μM (Ilangovan et al. 2013).
The experiment shown in FIG. 8 was then repeated using 4-(4-chlorophenyl)-5-methylene-pyrrol-2-one (Ref. 488) concentrations of 0, 50, 100 and 200 μM.
A partial agonist is a molecule that can bind to and activate a receptor resulting in a non-complete response compared with a full agonist. […] This contrasts with its activity as an antagonist in the presence of 10 or 40 μM PQS.

[3] = test system: PAO1-N ΔpqsAHR pqsA'::lux; experiment: PqsR-independent pqsA'::lux expression in PAO1-N ΔpqsAHR; type: cell-based, Pseudomonas aeruginosa; conditions: presence or absence of 40 μM PQS, FIG. 11
Source text: PQS is capable of weakly activating pqsA in the absence of PqsR via a mechanism that is not fully understood but appears to depend on the iron chelating properties of PQS. The aim of this experiment was to clarify whether lactam 4-(4-chlorophenyl)-5-methylene-pyrrol-2-one (Ref. 488) is also inhibitory for pqsA expression via the PqsR independent pathway. As previously described, the pqsA′::lux biosensor based on the triple mutant PAO1-N ΔpqsAHR cannot produce AQs and lacks pqsR but still responds to exogenous PQS. This response is however much weaker that the PqsR-dependent response.

[4] = test system: P. aeruginosa PA14 pqsA'::lux; experiment: pqsA'::lux fusion in P. aeruginosa PA14; type: cell-based; conditions: Pseudomonas aeruginosa, PA14, read-out: IC50, pqsA'::lux expression in PA14
Source text: To investigate the inhibitory effect of 4-(4-chlorophenyl)-5-methylene-pyrrol-2-one (Ref. 488) on P. aeruginosa PA14, a pqsA′::lux fusion was introduced onto the chromosome.

PqsABCD = experiment: AQ (HHQ) biosynthesis by PqsABCD, TLC with biosensor overlay; type: cell-based, Pseudomonas aeruginosa; conditions: 200 μM, PAO1-N ΔpqsAHR pBBR-pqsABCD, overnight in LB
Source text: To determine whether 4-(4-chlorophenyl)-5-methylene-pyrrol-2-one (Ref. 488) is capable of inhibiting the enzymes (PqsABCD) involved in AQ biosynthesis, the P. aeruginosa PAO1-N ΔpqsAHR was exploited. This mutant cannot produce AQs because the genes coding for the key biosynthetic enzymes (PqsA and PqsH) and regulation (PqsR) have been deleted. To restore AQ production in a PqsR-independent manner in PAO1-N ΔpqsA, the pqsABCD genes were introduced on a plasmid (pBBR pqsABCD; Niewerth et al. 2011). P. aeruginosa PAO1-N ΔpqsAHR and P. aeruginosa PAO1-N ΔpqsAHR pBBR pqsABCD were both incubated overnight in LB with and without 4-(4-chlorophenyl)-5-methylene-pyrrol-2-one (Ref. 488) (200 μM), resuspended to an OD600 1.0. The cultures were extracted with acidified ethyl acetate, the organic phase removed, dried and resuspended in methanol subjected to thin layer chromatography (TLC).
After chromatography using a dichloromethane-methanol mobile phase, the TLC plates were overlaid with a thin agar layer containing the AQ biosensor strain PAO1-L ΔpqsA CTX::pqsA′-luxCDABE (Fletcher et al. 2007) incubated and examined for reporter output (FIG. 13). […] The biosensor strain produces light (FIG. 13 panel C) and pyocyanin (FIG. 13 panel B) in response to AQs that bind to PqsR and activate the pqsA promoter.

SMILES | IC50 [1] | inhibition of light output / pqsA expression at high concentrations [1] | inhibition of the PqsR-dependent pqsA::lux promoter fusion (screen) ([1]; lactams at 100 μM, FIG. 3) | pyocyanin production [2] | mode of action on PQS-dependent pqsA::lux expression (PqsR; 488 at 0, 50, 100 and 200 μM, range of PQS, FIG. 9) | restoration of light output by PQS in the presence of the lactam (PqsR; 488 at 50, 100, 200 μM, FIG. 9) | partial agonist activity (activation of pqsA expression) (PqsR; concentrations up to 800 μM, without PQS, FIG. 10) | fold increase of PQS EC50 caused by the lactam (PqsR; fixed concentration of 488 (215 μM)) | effect on the PqsR-independent expression of pqsA [3] | IC50 [4] | inhibition of HHQ biosynthesis (PqsABCD) | EC50 (PqsR; EC50 of PQS for pqsA::lux expression in the presence of lactam 488, fixed concentration of 488 (215 μM), range of PQS concentrations, FIG. 8) | EC50 (PqsR; EC50 of PQS for pqsA::lux expression, PQS alone, PAO1-L ΔpqsA pqsA::lux) | EC50 (PqsR; PQS alone, PAO1-L ΔpqsA pqsA::lux, read-out: EC50 of PQS for pqsA::lux expression)
C=C1NC(=O)C=C1c1ccc(C)cc1 [Lactam 491, 5-methylene-4-(p-tolyl)pyrrol-2-one] | 44 µM | did not inhibit pqsA expression as strongly |  |  |  |  |  |  |  |  |  |  |  | 
C=C1NC(=O)C=C1c1ccc(Cl)cc1 [Lactam 488, 4-(4-chlorophenyl)-5-methylene-pyrrol-2-one] | 22 µM | completely inhibited light output | most potent inhibitor | inhibition of pyocyanin production | competitive antagonist | fully restoring light output in the presence of 50 μM but not 100 μM or 200 μM | no partial agonist activity | ~15 fold | small inhibitory effect | 17.9 µM | did not inhibit HHQ biosynthesis |  |  | 
CCCCCCCc1[nH]c2ccccc2c(=O)c1O [PQS, 2-heptyl-3-hydroxy-4-(1H)-quinolone, reference compound] |  |  |  |  |  |  |  |  |  |  |  | 31 µM | ~2 µM | 2 µM
